Patent publication US20210238169A1, “PROCESS FOR PREPARING A COMPOUND OF FORMULA (XIII)” (PULMOCIDE LIMITED, priority 2014, published 2021)

Columns and labels:
[1] = system: Aspergillus fumigatus (ATCC 13073); assay: IL-6 and TNFα levels in serum of Aspergillus fumigatus infected mice; format: in vivo
Procedure: (§1) Aspergillus fumigatus (ATCC 13073 [strain: NIH 5233], American Type Culture Collection, Manassas, Va., USA) was grown on Malt agar (Nissui Pharmaceutical, Tokyo, Japan) plates for 6-7 days at RT (24±1° C.). Spores were aseptically dislodged from the agar plates and suspended in sterile distilled water with 0.05% Tween 80 and 0.1% agar. On the day of infection, spore counts were assessed by haemocytometer and the inoculum was adjusted to obtain a concentration of 1.67×10^8 spores mL^−1 of physiological saline.
(§2) On day 0, animals were infected with the spore suspension (35 μL intra-nasally).
(§3) Test compounds were administered intra-nasally ([…]) once daily, 30 min before infection on day 0 and then on days 1, 2 and 3 (representing prophylactic treatment) or on days 1, 2 and 3 only (representing therapeutic treatment). For extended prophylactic treatment, test compounds (35 μL of a suspension of 0.0032 or 0.016 mg/mL in physiological saline) were administered intra-nasally once daily for seven days; then 30 min before infection on day 0, and thereafter, either on days 1, 2 and 3 after infection, or on day 0 only. The effects of these treatment paradigms were compared with those obtained when treatment was restricted to one day and 30 min before inoculation and then on days 1, 2 and 3 post infection; or reduced still further to one day and 30 min before infection only.
(§4) Six hours after the last dose, animals were anesthetised, the trachea was cannulated and BALF was collected. The total number of alveolar cells was determined using a haemocytometer, and the numbers of alveolar macrophages and neutrophils were determined by FACS analysis (EPICS® ALTRA II, Beckman Coulter, Inc., Fullerton, Calif., USA) using anti-mouse MOMA2-FITC (macrophage) or anti-mouse 7/4 (neutrophil), respectively, as previously reported (Kimura et al., 2013). The levels of IFN-γ and IL-17 in BALF, and IL-6 and TNFα in serum were determined using Quantikine® mouse IFN-γ, IL-17, IL-6 or TNF-α ELISA kit (R&D systems, Inc., Minneapolis, Minn., USA) respectively. MDA, an oxidative stress marker, was assayed using OxiSelect® TBARS Assay Kits (MDA Quantitation; Cell Biolabs Inc, San Diego, Calif., USA). Aspergillus GM in serum was determination using Platelia GM-EIA kits (Bio-Rad Laboratories, Redmond, Wash., USA). Cut-off index was calculated by the formula: Cut-off index=OD in sample/OD in cut-off control provided in kit. For tissue fungal load assays, 100 mg of lung tissue was removed aseptically and homogenized in 0.2 mL of 0.1% agar in sterile distilled water. Serially diluted lung homogenates were plated on Malt agar plates (50 μL/plate), and incubated at 24±1° C. for 72 to 96 h. The colonies of A. fumigatus on each plate was counted and the fungal titre presented as CFU per gram of lung tissue.

[2] = system: Aspergillus fumigatus (ATCC 13073); assay: Macrophage and neutrophil accumulation into BALF of Aspergillus fumigatus infected mice; format: in vivo
Procedure: as §1, §2, §3, §4

BEAS2B cells = assay: Cell viability: resazurin assay; format: cell-based, human; conditions: concentrations up to, at least, 10 μM
Procedure: BEAS2B cells were seeded in 384-well plates (100 μL; 3000/well/; BD Falcon, Catalogue No 353962) in RPMI-LHC8 (RPMI-1640 and LHC8 media combined in equal proportions) one day before experimentation. For cell-free control wells, RPMI-LHC8 (100 μL) was added. Test compounds (0.5 μL of a DMSO solution) were added to give a final DMSO concentration of 0.5% using an Integra VIAFLO 96 (Integra, Zizers, Switzerland). BEAS2B cells were incubated with each test compound for 1 day (37° C./5% CO2 in RPMI-LHC8). After addition of resazurin stock solution (5 μL, 0.04%) the plates were incubated for a further 4 hr (37° C./5% CO2). The fluorescence of each well at 545 nm (excitation) and 590 nm (emission) was determined using a multi-scanner (Clariostar: BMG Labtech). The percentage loss of cell viability was calculated for each well relative to vehicle (0.5% DMSO) treatment. Where appropriate, a CC50 value was calculated from the concentration-response curve generated from the concentration-response curve for each test compound.

[3] = Prophylactic Treatment, 0.08 mg/mL intra-nasally
[4] = Prophylactic Treatment, 0.4 mg/mL intra-nasally
[5] = Prophylactic Treatment, 2 mg/mL intra-nasally
[6] = Therapeutic Treatment, 0.4 mg/mL intra-nasally
[7] = Therapeutic Treatment, 2 mg/mL intra-nasally
[8] = Therapeutic Treatment, 10 mg/mL intra-nasally

Cc1cc(N2CCN(c3ccc(C(=O)Nc4ccc(F)cc4)cc3)CC2)ccc1OC[C@@H]1CO[C@@](Cn2cncn2)(c2ccc(F)cc2F)C1 [Compound (I), 4-(4-(4-(((3R,5R)-5-((1H-1,2,4-triazol-1-yl)methyl)-5-(2,4-difluorophenyl)tetrahydrofuran-3-yl)methoxy)-3-methylphenyl)piperazin-1-yl)-N-(4-fluorophenyl)benzamide]
IL-6 concentration in serum [1, 3]: 159 ± 73.3 pg/mL
IL-6 in serum, % Inhibition [1, 3]: 44%
TNFα concentration in serum [1, 3]: 11.8 ± 5.9 pg/mL
TNFα in serum, % Inhibition [1, 3]: 54%
IL-6 concentration in serum [1, 4]: 86.3 ± 46.9 pg/mL
IL-6 in serum, % Inhibition [1, 4]: 70%
TNFα concentration in serum [1, 4]: 7.3 ± 3.5 pg/mL
TNFα in serum, % Inhibition [1, 4]: 71%
IL-6 concentration in serum [1, 5]: 44.5 ± 12.2 pg/mL
IL-6 in serum, % Inhibition [1, 5]: 84%
TNFα concentration in serum [1, 5]: 4.7 ± 0.4 pg/mL
TNFα in serum, % Inhibition [1, 5]: 82%
IL-6 concentration in serum [1, 6]: 51.7 ± 16.8 pg/mL
IL-6 in serum, % Inhibition [1, 6]: 82%
TNFα concentration in serum [1, 6]: 6.2 ± 0.5 pg/mL
TNFα in serum, % Inhibition [1, 6]: 76%
IL-6 concentration in serum [1, 7]: 44.2 ± 11.4 pg/mL
IL-6 in serum, % Inhibition [1, 7]: 84%
TNFα concentration in serum [1, 7]: 5.5 ± 0.7 pg/mL
TNFα in serum, % Inhibition [1, 7]: 79%
IL-6 concentration in serum [1, 8]: 35.9 ± 10.4 pg/mL
IL-6 in serum, % Inhibition [1, 8]: 87%
TNFα concentration in serum [1, 8]: 4.9 ± 0.6 pg/mL
TNFα in serum, % Inhibition [1, 8]: 81%
Macrophage cell numbers in BAL [2, 3]: 0.40 ± 0.15 × 10^5/mL
Macrophage cell numbers in BAL, % inhibition [2, 3]: 38%
Neutrophil cell numbers in BAL [2, 3]: 0.37 ± 0.04 × 10^5/mL
Neutrophil cell numbers in BAL, % inhibition [2, 3]: 24%
Macrophage cell numbers in BAL [2, 4]: 0.32 ± 0.07 × 10^5/mL
Macrophage cell numbers in BAL, % inhibition [2, 4]: 51%
Neutrophil cell numbers in BAL [2, 4]: 0.26 ± 0.12 × 10^5/mL
Neutrophil cell numbers in BAL, % inhibition [2, 4]: 47%
Macrophage cell numbers in BAL [2, 5]: 0.26 ± 0.05 × 10^5/mL
Macrophage cell numbers in BAL, % inhibition [2, 5]: 60%
Neutrophil cell numbers in BAL [2, 5]: 0.22 ± 0.04 × 10^5/mL
Neutrophil cell numbers in BAL, % inhibition [2, 5]: 55%
Macrophage cell numbers in BAL [2, 6]: 0.43 ± 0.05 × 10^5/mL
Macrophage cell numbers in BAL, % inhibition [2, 6]: 34%
Neutrophil cell numbers in BAL [2, 6]: 0.38 ± 0.04 × 10^5/mL
Neutrophil cell numbers in BAL, % inhibition [2, 6]: 22%
Macrophage cell numbers in BAL [2, 7]: 0.40 ± 0.11 × 10^5/mL
Macrophage cell numbers in BAL, % inhibition [2, 7]: 38%
Neutrophil cell numbers in BAL [2, 7]: 0.34 ± 0.05 × 10^5/mL
Neutrophil cell numbers in BAL, % inhibition [2, 7]: 31%
Macrophage cell numbers in BAL [2, 8]: 0.32 ± 0.07 × 10^5/mL
Macrophage cell numbers in BAL, % inhibition [2, 8]: 51%
Neutrophil cell numbers in BAL [2, 8]: 0.27 ± 0.08 × 10^5/mL
Neutrophil cell numbers in BAL, % inhibition [2, 8]: 45%
effect on the viability of BEAS2B bronchial epithelial cells (BEAS2B cells): no or little effect
